According to US20260027096A1, “PHD INHIBITORS” (Oxford University Innovation Limited, priority 2023, published 2026):

Molecular target: PHD2 (Homo sapiens (Human), UniProt Q9GZT9)
Test: PHD2 RF-MS (RapidFire LC-MS) hydroxylation assay
Format: biochemical
Conditions: not given
Protocol: In brief, cDNA encoding for the catalytic domain of tPHD2 (181-426 residues) was cloned into the pET28a (+)/pET24a (+) vectors (Novagen), to enable production of tPHD2 (residues 181-426) protein with/without an N-terminal His6-tag. The tPHD2 (residues 181-426) encoding construct was transformed into the Escherichia coli BL21 DE3 cell line; protein production was induced with 0.5 mM […] (3-5 hr at 28° C.). […] The protein was exchanged into 50 mM Tris-HCl buffer (pH 7.5) and concentrated to % 40 mg/ml.
Tris(hydroxymethyl)aminomethane was from Fisher. Ferrous ammonium sulfate (FAS), 2-oxoglutarate (2OG) and L-ascorbic acid were from Sigma Aldrich; solutions of these were prepared freshly each day. All inhibition assays were carried out in 384-well polypropylene plates (Greiner Bio-One). PHD2 assays were performed in assay buffer (50 mM Tris. Cl pH 7.5, 50 mM NaCl). […] The final assay concentration of DMSO was kept constant at 0.5%. PHD2 protein was prepared at a concentration of 300 nM in assay buffer and 25 μl dispensed across each 384-well assay plate. The PHD2 solution was allowed to equilibrate with the inhibitors for 15 minutes at room temperature; the enzyme reaction then initiated by dispense of 25 μl of substrate (20 μM FAS, 200 µM L-ascorbic acid, 10 μM CODD peptide and 20 μM 2OG in the assay buffer. Enzyme reactions were allowed to proceed for 20 minutes at room temperature and the reaction terminated by addition of 10% formic acid (5 μl). Assay plates were then transferred to a RapidFire RF360 sampling robot (Agilent) connected to an Agilent 6530 accurate mass quadrupole-time-of-flight (Q-TOF) mass spectrometer. Assay samples were aspirated under vacuum and loaded onto a C4 solid phase extraction (SPE) cartridge. After loading the C4 SPE was washed with 0.1% formic acid in water to remove non-volatile buffer salts and then peptide was eluted from the SPE with 85% acetonitrile, 15% water containing 0.1% formic acid onto the mass spectrometer. Peptide charge states were monitored in positive mode. Ion chromatogram data were extracted for the +2 charge state and peak area data integrated using RapidFire Integrator software (Agilent). % conversion of the CODD peptide substrate to the +16 hydroxylated peptide was calculated using the equation: % conversion=100×hydroxylated/(hydroxylated+non-hydroxylated peptide). IC50 values were determined from non-linear regression plots using GraphPad prism.
Example 158—Structure activity relationship (SAR) studies for PHD inhibition SAR studies for PHD inhibition were carried out on the compounds of the invention. Compounds were screened against PHD2 using the RF-MS hydroxylation assay.

PHD2, sequence (Q9GZT9 181-426): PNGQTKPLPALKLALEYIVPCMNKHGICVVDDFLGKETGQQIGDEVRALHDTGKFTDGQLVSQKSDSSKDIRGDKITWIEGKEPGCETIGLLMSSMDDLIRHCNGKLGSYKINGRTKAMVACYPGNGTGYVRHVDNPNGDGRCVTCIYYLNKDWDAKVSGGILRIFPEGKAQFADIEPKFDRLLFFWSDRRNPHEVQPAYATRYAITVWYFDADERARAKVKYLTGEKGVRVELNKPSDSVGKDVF

| Structure (SMILES) | IC50 [nM] |
| --- | --- |
| O=C(NCc1ccc(-c2ccccc2)cc1)c1cnc2c(cnc3ccnn32)c1O [Compound 117, N-([1,1′-Biphenyl]-4-ylmethyl)-6-hydroxypyrazolo[1,5-a]pyrido[3,2-e]pyrimidine-7-carboxamide] | 1 to 1000 |
| Cc1cc2nc(C)c3c(O)c(C(=O)NCc4ccc(C(F)(F)F)cc4)cnc3n2n1 [Compound 123, 6-Hydroxy-2,5-Dimethyl-N-(4-(trifluoromethyl)benzyl) pyrazolo[1,5-a]pyrido[3,2-e]pyrimidine-7-carboxamide] | 1 to 1000 |
| Cc1cc2nc(C)c3c(O)c(C(=O)NCc4ccc(-c5ccccc5)cc4)cnc3n2n1 [Compound 122, N-([1,1′-Biphenyl]-4-ylmethyl)-6-hydroxy-2,5-dimethylpyrazolo[1,5-a]pyrido[3,2-e]pyrimidine-7-carboxamide] | 1 to 1000 |
| N#Cc1cnc(-n2cc(C(=O)NCc3ccc(-c4ccc(C(=O)O)cc4)nc3)cn2)nc1O [Compound 162, 4-(5-((1-(5-cyano-4-hydroxypyrimidin-2-yl)-1H-pyrazole-4-carboxamido)methyl)pyridin-2-yl)benzoic acid] | 1000 to 10000 |
| COc1ccc([C@H](C)NC(=O)c2cnc3c(c(C)nc4cc(C)nn43)c2O)cc1 [Compound 180, (S)-6-hydroxy-N-(1-(4-methoxyphenyl)ethyl)-2,5-dimethylpyrazolo[1,5-a]pyrido[3,2-e]pyrimidine-7-carboxamide] | 1 to 1000 |
| N#Cc1cnn(-c2cc(O)c(C(=O)NCc3ccc(C(F)(F)F)cc3)cn2)c1 [Compound 89, 6-(4-Cyano-1H-pyrazol-1-yl)-4-hydroxy-N-(4-(trifluoromethyl)benzyl) nicotinamide] | 1 to 1000 |
| O=C(NCc1ccc(C(F)(F)F)cc1)c1cnc(-n2cccn2)cc1O [Compound 64, 4-Hydroxy-6-(1H-pyrazol-1-yl)-N-(4-(trifluoromethyl)benzyl) nicotinamide] | 1 to 1000 |
| O=C(O)c1cnn(-c2cc(O)c(C(=O)NCc3ccc(-c4ccccc4)nc3)cn2)c1 [Compound 91, 1-(4-Hydroxy-5-(((6-phenylpyridin-3-yl)methyl)carbamoyl)pyridin-2-yl)-1H-pyrazole-4-carboxylic acid] | 1 to 1000 |
| O=C(NCc1ccc(-c2ccccc2)cc1)c1cnc(-n2cccn2)nc1 [Compound 20, N-([1,1′-Biphenyl]-4-ylmethyl)-2-(1H-pyrazol-1-yl)pyrimidine-5-carboxamide] | > 10000 |
| O=C(NCc1cccc(C(F)(F)F)c1)c1cnc(-n2cccn2)cc1O [Compound 43, 4-Hydroxy-6-(1H-pyrazol-1-yl)-N-(3-(trifluoromethyl)benzyl) nicotinamide] | 1000 to 10000 |
| Cc1cc2nc(C)c3c(O)c(C(=O)NCc4ccc(-c5cccc(N6CCOCC6)c5)nc4)cnc3n2n1 [Compound 176, 6-hydroxy-2,5-dimethyl-N-((6-(3-morpholinophenyl)pyridin-3-yl)methyl) pyrazolo[1,5-a]pyrido[3,2-e]pyrimidine-7-carboxamide] | 1000 to 10000 |

Other lines, results leading:

| IC50 [nM] | Structure (SMILES) |
| --- | --- |
| 1000 to 10000 | O=C(NCc1ccc(-c2ccccc2)cc1)c1cnn(-c2cc(O)c(C(=O)O)cn2)c1 [Compound 96, 6-(4-(([1,1′-Biphenyl]-4-ylmethyl)carbamoyl)-1H-pyrazol-1-yl)-4-hydroxynicotinic acid] |
| 1000 to 10000 | O=C(O)c1ccc(-n2cc(C(=O)NCc3ccc(-c4ccccc4)cc3)cn2)nc1 [Compound 101, 6-(4-(([1,1′-Biphenyl]-4-ylmethyl)carbamoyl)-1H-pyrazol-1-yl) nicotinic acid] |
| > 10000 | O=C(NCc1ccc(-c2ccccc2)cc1)c1ccc(-n2cccn2)nc1 [Compound 22, N-([1,1′-Biphenyl]-4-ylmethyl)-6-(1H-pyrazol-1-yl) nicotinamide] |
| 1 to 1000 | N#Cc1cnn(-c2ncc(C(=O)NCc3ccc(-c4ccccc4)cc3)cc2O)c1 [Compound 125, N-([1,1′-biphenyl]-4-ylmethyl)-6-(4-cyano-1H-pyrazol-1-yl)-5-hydroxynicotinamide] |
| 1 to 1000 | O=C(O)c1cnn(-c2ccc(C(=O)NCc3ccc(-c4ccccc4)cc3)cn2)c1 [Compound 31, 1-(5-(([1,1′-Biphenyl]-4-ylmethyl)carbamoyl)pyridine-2-yl)-1H-pyrazole-4-carboxylic acid] |
| > 10000 | N#Cc1ccc(-n2cc(C(=O)NCc3ccc(-c4ccccc4)cc3)cn2)nc1 [Compound 97, N-([1,1′-Biphenyl]-4-ylmethyl)-1-(5-cyanopyridin-2-yl)-1H-pyrazole-4-carboxamide] |
| > 10000 | O=C(Nc1ccc(-c2ccccc2)cc1)c1cnn(-c2cc(O)ccn2)c1 [Compound 108, N-([1,1′-Biphenyl]-4-yl)-1-(4-hydroxypyridin-2-yl)-1H-pyrazole-4-carboxamide] |
| 1 to 1000 | N#Cc1cnc(-n2cc(C(=O)NCc3ccc(-c4ccccc4)cc3)cn2)nc1O [Compound 158, N-([1,1′-biphenyl]-4-ylmethyl)-1-(5-cyano-4-hydroxypyrimidin-2-yl)-1H-pyrazole-4-carboxamide] |
| 1000 to 10000 | O=C(NCc1ccc(-c2ccccc2)cc1)c1cnn(-c2cc(O)ccn2)c1 [Compound 99, N-([1,1′-Biphenyl]-4-ylmethyl)-1-(4-hydroxypyridin-2-yl)-1H-pyrazole-4-carboxamide] |
| 1 to 1000 | O=C(Nc1ccc(-c2ccccc2)cc1)c1cnc2c(cnc3ccnn32)c1O [Compound 119, N-([1,1′-Biphenyl]-4-yl)-6-hydroxypyrazolo[1,5-a]pyrido[3,2-e]pyrimidine-7-carboxamide] |
| 1 to 1000 | N#Cc1cnn(-c2cc(O)c(C(=O)NCc3ccc(-c4ccccc4)cc3)cn2)c1 [Compound 85, N-([1,1′-Biphenyl]-4-ylmethyl)-6-(4-cyano-1H-pyrazol-1-yl)-4-hydroxynicotinamide] |
| > 10000 | O=C(O)c1ccnc(-n2cc(C(=O)NCc3ccc(-c4ccccc4)cc3)cn2)c1 [Compound 103, 2-(4-(([1,1′-Biphenyl]-4-ylmethyl)carbamoyl)-1H-pyrazol-1-yl) isonicotinic acid] |
| 1000 to 10000 | O=C(NCc1cccc(-c2ccccc2)c1)c1cnn(-c2cc(O)ccn2)c1 [Compound 109, N-([1,1′-Biphenyl]-3-ylmethyl)-1-(4-hydroxypyridin-2-yl)-1H-pyrazole-4-carboxamide] |
| 1000 to 10000 | O=C(NCc1ccc(-c2ccccc2)cc1)c1cnc(-n2cccn2)c(O)c1 [Compound 75, N-([1,1′-Biphenyl]-4-ylmethyl)-5-hydroxy-6-(1H-pyrazol-1-yl) nicotinamide] |

Test system: human THP-1 cells
Test: Proliferation and apoptosis of THP-1 cells
Format: cell-based
Conditions: THP-1, 50 μM
Excerpt: Viable cells were counted by trypan blue exclusion at the indicated time points. To analyse cells undergoing apoptosis, cells were suspended in binding buffer containing PE-conjugated Annexin-V or FITC-conjugated Annexin-V, and either PI or DAPI.
To determine consequences of Daprodustat (2) and IOX5 (68, example 46) treatment on AML cells driven by the MLL-AF9→MEIS1/HOXA9 axis, mouse iMLL-AF9-and Meis1Hoxa9-transformed AML cells were employed, as well as human THP-1 cells, which harbour the MIL-AF9 translocation. […] Thus, providing compelling evidence that PHD inhibition compromises AML cells driven by the MLL-AF9→MEIS1/HOXA9 axis.

| Structure (SMILES) | proliferation |
| --- | --- |
| Cc1nc(C(=O)NCC(=O)O)c(O)c2ccc(Oc3ccccc3)cc12 [roxadustat] | strong anti-leukaemic activity |

Same assay, conditions: THP-1 cells; FIH inhibitor DM-NOFD alone or combined

| Structure (SMILES) | proliferation and survival (Annexin-V+DAPI+) of AML cells |
| --- | --- |
| COC(=O)C(=O)N[C@H](Cc1ccccc1)C(=O)OC [DM-NOFD, dimethyl N-oxalyl-D-phenylalanine] | no impact on proliferation and survival of AML cells |

Test system: HIF1-α in Hep3B cells
Test: Immunoblots of Hep3B cells
Format: cell-based
Conditions: 100 μM and 20 μM, 3 hours
Protocol: Example 159—Immunoblots of Hep3B cells treated with compounds of the invention Hep3B cells were treated with 117, 119, 122 and 123 of the invention (Examples 93, 95, 98 and 99) at 100 μM (A) and 20 μM (B) PHD inhibitors for 3 hours. The blots show protein levels of HIF1-α and β-actin at the 3rd hour after treatment.

| Structure (SMILES) | protein level of HIF1-α (immunoblot) |
| --- | --- |
| O=C(NCc1ccc(-c2ccccc2)cc1)c1cnc2c(cnc3ccnn32)c1O [Compound 117, N-([1,1′-Biphenyl]-4-ylmethyl)-6-hydroxypyrazolo[1,5-a]pyrido[3,2-e]pyrimidine-7-carboxamide] | increase HIF-1α |
| Cc1cc2nc(C)c3c(O)c(C(=O)NCc4ccc(C(F)(F)F)cc4)cnc3n2n1 [Compound 123, 6-Hydroxy-2,5-Dimethyl-N-(4-(trifluoromethyl)benzyl) pyrazolo[1,5-a]pyrido[3,2-e]pyrimidine-7-carboxamide] | increase HIF-1α |
| Cc1cc2nc(C)c3c(O)c(C(=O)NCc4ccc(-c5ccccc5)cc4)cnc3n2n1 [Compound 122, N-([1,1′-Biphenyl]-4-ylmethyl)-6-hydroxy-2,5-dimethylpyrazolo[1,5-a]pyrido[3,2-e]pyrimidine-7-carboxamide] | increase HIF-1α |
| O=C(Nc1ccc(-c2ccccc2)cc1)c1cnc2c(cnc3ccnn32)c1O [Compound 119, N-([1,1′-Biphenyl]-4-yl)-6-hydroxypyrazolo[1,5-a]pyrido[3,2-e]pyrimidine-7-carboxamide] | increase HIF-1α |
